{"source": "patent US8614246B2", "about": "“Indole derivatives for treating neurodegenerative diseases” (Centre National de la Recherche Scientifique (CNRS), priority 2009, dated 2013)", "key": {"[1]": {"test_system": "reactive oxygen species (ROS) in neurones of ventral mesencephalon cultures", "assay": "Cellular test with dihydrorhodamine 123 (DHR-123)", "format": "cell-based, rat", "conditions": "compounds 10 nM for eight days, 50 μM DHR-123 30 minutes; control = 100; Trolox at 10 μM per FIG. 1", "experimental": "Dihydrorhodamine 123 or DHR123 is used as an indicator of reactive oxygen species (ROS). It is uncharged and not fluorescent and passes passively through the cellular membrane before being oxidised in contact with free radicals, into rhodamine 123 emitting green fluorescence.\nThe quantity of intracellular ROS is reduced when the cells are treated by an anti-oxidant. This reduction results in a quantifiable decay in emitted fluorescence in the presence of DHR123.\nIn order to conclude the role of the anti-oxidant capacity of compounds according to the invention in the observed neuroprotectrive activity, the cultures were placed strictly under the same conditions as for the neuroprotection/neuritogenesis test. Thus, the cultures were kept for eight days in the presence of a concentration of 10 nM of each of the tested tryptaminic derivatives. On the 8th day in vitro (DIV 8), 50 μM of DHR-123 (Sigma) was added and the cells were incubated for 30 minutes at 37° C. They were then washed three times, treated once again by compounds according to the invention and placed in a medium without any phenol red. Living fluorescent neurones that were immediately photographed can be observed, the fluorescence density per neurone being quantified under an inverted fluorescence microscope by an image analysis software."}, "[2]": {"assay": "Study of the passage through the blood-brain barrier (HPLC-MS/MS of brain extracts)", "format": "in vivo, mice", "conditions": "for average concentration of compound 2c in brain extracts: 5-day sub-chronic, ± SEM, n=8", "experimental": "The purpose of this study is to use HPLC coupled with a mass spectrometer to verify the presence of molecule 2c according to the invention […] hydrochloride of molecule 2c (2c/HCl) by oral or intra-peritoneal (IP)pathway.\nAnimals: Male RjOrl: SWISS mice approximately 5 weeks old and weighing between 20 and 24 g on arrival (from the R Janvier Breeding Centre, France) are kept in the animal house at constant temperature (22±1° C.) and under controlled hygrometry (55±20%) with a 12 hours light/darkness cycle (8 h00-20 h00). The mice were allowed free access to food and drink during the acclimatisation and study period. All experiments took place in accordance with the conditions defined in decree No. 2001-464, May 29, 2001 dealing with experiments on animals.\nTreatments: Two 5-day sub-chronic treatments were done (oral or intra-peritoneal pathway): • Treatment by Intra-Peritoneal Pathway (IP):\nThe solution of hydrochloride of 2c/HCl to be injected is prepared in the carrier (10% Tween20+20% DMSO+70% NaCl at 09% in water) at a concentration of 2.0 g/L. Three groups were formed: • (1) mice that received the carrier through the IP pathway, at 10 mL/kg (group N, n=4), • (2) mice treated with 2c/HCl by IP pathway, at 20 mg/kg and at 10 mL/kg (group R, n=6), and • (3) Control mice that received no treatment (n=2).\nThe treated mice R4, R5 and R6 and the carrier mice N1, N2, N3 and N4 received the following treatments:\nThe solution of hydrochloride of 2c to be administered is prepared in the carrier (0.5% Tween80+99.5% carboxy-methyl cellulose at 1%, in 0.9% NaCl in water) at a concentration of 15.0 g/L.\n(2) mice treated with 2c/HCl by oral pathway at 150 mg/kg and at 10 mL/kg (Group B, n=6), and\nAll mice were treated twice per day for 4 days. On the 5th day, they received a final treatment and were euthanized between 3 h00 and 7 h30 after this last treatment, according to the following scheme:\nEuthanasia: The mice are anaesthetised by the injection of 0.1 mL of a solution of sodium pentobarbital at 6% and an perfusion is then done on the mice so as to remove all traces of blood from the brain, with an 0.9% NaCl solution that contains heparin (200 μL of heparin choay at 5000 UI/mL in 1 liter of 0.9% NaCl). An perfusion with a minimum of 50 mL of this solution is done on each animal. The mouse brain is removed. The cerebellum, the brain stem and olfactory bulbs are eliminated.\nThe 3 parts of the brain are frozen in isopentane at −30° C. for one minute, and then kept separately at −80° C. […]\nHowever, only parts 1 of the mice brains were extracted and analysed so as to keep samples for future analyses. […]\nInstrumentation and conditions for analysis of compound 2c: Detection and quantification based on the area of the peaks are done using HPLC-MS/MS, in MRM mode. […]"}}, "data": [{"molecule": "CCCCCCCCCCCCCCCCNCCc1c[nH]c2ccccc12", "note": "[Compound 2c, N-(2-(1H-indol-3-yl)ethyl)hexadecan-1-amine]", "values": [{"measurement": "IF/neurone (%) (fluorescence intensity per neurone)", "setting": "[1]", "value": "47.8 ± 4.7", "unit": "%"}, {"measurement": "average concentration of compound 2c in brain extracts", "setting": "[2]; mice, IP, 2c/HCl 20 mg/kg", "value": 14.73, "unit": "ng/mL"}, {"measurement": "crossing of the BBB in vivo", "setting": "[2]; mice, after IP and after per os administration of 2c/HCl", "value": "capable of crossing the BBB in vivo"}, {"measurement": "average concentration of compound 2c in brain extracts", "setting": "[2]; mice, per os, 2c/HCl 150 mg/kg twice per day (300 mg/kg/d)", "value": 21.25, "unit": "ng/mL"}, {"measurement": "brain concentration after per os treatment relative to IP treatment", "setting": "[2]; per os 300 mg/kg/d vs IP 20 mg/kg/d", "value": "about 1.5 times"}]}]}
